“And” between values parts separate entries of the source, which are not always exact repeats. Equal values may be shown once. Read-outs that look alike come from different tables or passages of the source.
Experiments:
HBV genotype C = assay: Test Example 3-1: in vivo efficacy study in PXB mouse (chimeric mouse with human hepatocytes); parameters: species or system hepatitis B virus; details: orally 100 mg/kg twice a day for 14 days
Method: An in vivo efficacy study with a. PXB mouse (a chimeric mouse with human hepatocytes) was carried out in PhenixBio Co., Ltd. 27-Week-or-more-old male mice having body weights of 15 g or more after the elapse of 12 weeks from the infection with HBV genotype C were allocated into three groups (2 mice per group) and used.
The compounds of Examples 6-5 and 10-2 were each orally administered at 100 mg/kg twice a day for 14 days. The other group was taken as a control group for which administration was not carried out. A first administration day was taken as day 0, and before administration on day 0, day 3, Day 7, and day 10, and on day 14, the blood was collected from the orbital venous plexus under anesthesia with isoflurane. The serum was separated from the collected blood and purified with a QIAamp (registered trademark) DNA Blood Mini Kit (manufactured by QIAGEN). The amount of HBV-DNA in the obtained solution was absolutely quantified by a real-time PCR method. In addition, the amount of HBsAg and the amount of HBcrAg in the serum were each absolutely quantified by chemiluminescent enzyme immunoassay using Lumipulse (registered trademark) HBsAg-HQ (manufactured by Fujirebio Inc.) and Lumipulse (registered trademark) HBcrAg (manufactured by Fujirebio Inc.).

HBV (genotype AeUS) = assay: Test Example 2-1: anti-HBV assay in PXB-cells (fresh human hepatocytes); assay type: cell-based, hepatitis B virus; details: Hepatitis B virus, Hepatocyte, PXB-cells infected with HBV genotype AeUS, culture supernatant on day 32 post infection
Procedure, shortened: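 PXB-cells (primary human hepatocytes from chimeric mice) infected with mouse-serum-derived HBV genotype AeUS at ~10 copies/cell with 4% PEG-8000. Compound dosed days 17–32 post-infection, refreshed every 5 days, 37 °C. Day-32 supernatant HBV-DNA by real-time PCR and HBsAg by chemiluminescent immunoassay, as % of untreated control; IC50 by log-linear regression.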

[1] = Day 0 (before administration), individual mice

| SMILES | HBV-DNA in serum (HBV genotype C; [1]) | HBcrAg in serum (HBV genotype C; [1]) | HBsAg in serum (HBV genotype C; [1]) | HBV-DNA in serum (HBV genotype C; Day 3, individual mice) | HBcrAg in serum (HBV genotype C; Day 3, individual mice) | HBsAg in serum (HBV genotype C; Day 3, individual mice) | HBV-DNA in serum (HBV genotype C; Day 7, individual mice) | HBcrAg in serum (HBV genotype C; Day 7, individual mice) | HBsAg in serum (HBV genotype C; Day 7, individual mice) | HBV-DNA in serum (HBV genotype C; Day 10, individual mice) | HBsAg in serum (HBV genotype C; Day 10, individual mice) | HBV-DNA in serum (HBV genotype C; Day 14, individual mice) | HBcrAg in serum (HBV genotype C; Day 14, individual mice) | HBsAg in serum (HBV genotype C; Day 14, individual mice) | IC50 (HBV (genotype AeUS); read-out: IC50 HBV-DNA) | IC50 (HBV (genotype AeUS); read-out: IC50 HBsAg) |
| --- | --- | --- | --- | --- | --- | --- | --- | --- | --- | --- | --- | --- | --- | --- | --- | --- |
| COCCN1CCN(c2nc3ccc(-n4cc(C(=O)O)c(=O)cc4-c4ccc(N5CCCC5)c(Cl)c4)cc3s2)CC1 [Example 6-5, 6-(3-chloro-4-(pyrrolidin-1-yl)phenyl)-1-(2-(4-(2-methoxyethyl)piperazine-1-yl)benzo[d]thiazol-6-yl)-4-oxo-1,4-dihydropyridine-3-carboxylic acid] | 2.3E+09 copies/mL and 2.1E+09 copies/mL | 4.5E+08 U/mL and 2.9E+08 U/mL | 3,578 IU/mL and 2,370 IU/mL | 8.7E+08 copies/mL and 7.1E+08 copies/mL | 1.5E+08 U/mL and 9.7E+07 U/mL | 781 IU/mL and 357 IU/mL | 2.7E+08 copies/mL and 2.9E+08 copies/mL | 8.7E+07 U/mL and 7.7E+07 U/mL | 570 IU/mL and 345 IU/mL | 3.4E+08 copies/mL and 6.3E+08 copies/mL | 588 IU/mL and 355 IU/mL | 3.3E+08 copies/mL and 8.4E+08 copies/mL | 7.5E+07 U/mL and 9.1E+07 U/mL | 540 IU/mL and 349 IU/mL | < 8 nM | 16 nM |
| COC[C@H]1CCCN1c1nc2ccc(-n3cc(C(=O)O)c(=O)cc3-c3ccc(N4CC[C@@H](OC)C4)cc3)cc2s1 [Example 10-2, 1-(2-((R)-2-(methoxymethyl)pyrrolidin-1-yl)benzo[d]thiazol-6-yl)-6-(4-((R)-3-methoxypyrrolidin-1-yl)phenyl)-4-oxo-1,4-dihydropyridine-3-carboxylic acid] | 1.5E+09 copies/mL and 3.2E+09 copies/mL | 2.7E+08 U/mL and 4.1E+08 U/mL | 2,930 IU/mL and 2,629 IU/mL | 1.0E+09 copies/mL and 1.4E+09 copies/mL | 8.8E+07 U/mL and 1.4E+08 U/mL | 638 IU/mL and 564 IU/mL | 6.9E+08 copies/mL and 4.7E+08 copies/mL | 7.5E+07 U/mL and 7.3E+07 U/mL | 450 IU/mL and 429 IU/mL | 8.4E+08 copies/mL and 6.4E+08 copies/mL | 476 IU/mL and 407 IU/mL | 9.6E+08 copies/mL and 1.3E+09 copies/mL | 7.8E+07 U/mL and 9.8E+07 U/mL | 522 IU/mL and 477 IU/mL | 18 nM | 22 nM |

— US11161830B2, “4-pyridone compound or salt thereof, and pharmaceutical composition and formulation including same” (priority 2017, dated 2021)
